Results as given in ChEMBL document CHEMBL3639365, “Substituted aniline derivatives” (2014).

Legend:
1,3-beta-glucan synthase [1] = biological target: 1,3-beta-glucan synthase (Aspergillus, UniProt Q4WLT4); test: (§1) Glucan Synthase Assay: The glucan synthase assay follows the incorporation of tritiated UDP-glucose into acid insoluble β-glucan as catalysed by the glucan synthase activity present in membrane preparations from Candida albicans and Aspergillus fumigatus. UDP-[3H]-glucose (ca 0.01 μCi) is added to 100 μl assay buffer (50 mM Tris-Cl, pH8.0, 8% glycerol, 1 mM EDTA, 1.5 mM KF, 1 mM DTT, 20 μM GTPγS, 600 μM UDP-glucose) and the reaction initiated by the addition of 2.5 μl of enzyme preparation. After incubation at 30°C. for 120 minutes, 10 μl of 30 mg/ml BSA is added with mixing and the reaction is terminated with 110 μl ice-cold 20% TCA. The precipitate is collected on a GF/B filter plate and washed three times with 200 μl water. Once dry, 200 μl of Microscint20 is added to each well and the plate is read on a Top-count scintillation counter.
1,3-beta-glucan synthase (Aspergillus, UniProt Q4WLT4), sequence (Q4WLT4 whole entry): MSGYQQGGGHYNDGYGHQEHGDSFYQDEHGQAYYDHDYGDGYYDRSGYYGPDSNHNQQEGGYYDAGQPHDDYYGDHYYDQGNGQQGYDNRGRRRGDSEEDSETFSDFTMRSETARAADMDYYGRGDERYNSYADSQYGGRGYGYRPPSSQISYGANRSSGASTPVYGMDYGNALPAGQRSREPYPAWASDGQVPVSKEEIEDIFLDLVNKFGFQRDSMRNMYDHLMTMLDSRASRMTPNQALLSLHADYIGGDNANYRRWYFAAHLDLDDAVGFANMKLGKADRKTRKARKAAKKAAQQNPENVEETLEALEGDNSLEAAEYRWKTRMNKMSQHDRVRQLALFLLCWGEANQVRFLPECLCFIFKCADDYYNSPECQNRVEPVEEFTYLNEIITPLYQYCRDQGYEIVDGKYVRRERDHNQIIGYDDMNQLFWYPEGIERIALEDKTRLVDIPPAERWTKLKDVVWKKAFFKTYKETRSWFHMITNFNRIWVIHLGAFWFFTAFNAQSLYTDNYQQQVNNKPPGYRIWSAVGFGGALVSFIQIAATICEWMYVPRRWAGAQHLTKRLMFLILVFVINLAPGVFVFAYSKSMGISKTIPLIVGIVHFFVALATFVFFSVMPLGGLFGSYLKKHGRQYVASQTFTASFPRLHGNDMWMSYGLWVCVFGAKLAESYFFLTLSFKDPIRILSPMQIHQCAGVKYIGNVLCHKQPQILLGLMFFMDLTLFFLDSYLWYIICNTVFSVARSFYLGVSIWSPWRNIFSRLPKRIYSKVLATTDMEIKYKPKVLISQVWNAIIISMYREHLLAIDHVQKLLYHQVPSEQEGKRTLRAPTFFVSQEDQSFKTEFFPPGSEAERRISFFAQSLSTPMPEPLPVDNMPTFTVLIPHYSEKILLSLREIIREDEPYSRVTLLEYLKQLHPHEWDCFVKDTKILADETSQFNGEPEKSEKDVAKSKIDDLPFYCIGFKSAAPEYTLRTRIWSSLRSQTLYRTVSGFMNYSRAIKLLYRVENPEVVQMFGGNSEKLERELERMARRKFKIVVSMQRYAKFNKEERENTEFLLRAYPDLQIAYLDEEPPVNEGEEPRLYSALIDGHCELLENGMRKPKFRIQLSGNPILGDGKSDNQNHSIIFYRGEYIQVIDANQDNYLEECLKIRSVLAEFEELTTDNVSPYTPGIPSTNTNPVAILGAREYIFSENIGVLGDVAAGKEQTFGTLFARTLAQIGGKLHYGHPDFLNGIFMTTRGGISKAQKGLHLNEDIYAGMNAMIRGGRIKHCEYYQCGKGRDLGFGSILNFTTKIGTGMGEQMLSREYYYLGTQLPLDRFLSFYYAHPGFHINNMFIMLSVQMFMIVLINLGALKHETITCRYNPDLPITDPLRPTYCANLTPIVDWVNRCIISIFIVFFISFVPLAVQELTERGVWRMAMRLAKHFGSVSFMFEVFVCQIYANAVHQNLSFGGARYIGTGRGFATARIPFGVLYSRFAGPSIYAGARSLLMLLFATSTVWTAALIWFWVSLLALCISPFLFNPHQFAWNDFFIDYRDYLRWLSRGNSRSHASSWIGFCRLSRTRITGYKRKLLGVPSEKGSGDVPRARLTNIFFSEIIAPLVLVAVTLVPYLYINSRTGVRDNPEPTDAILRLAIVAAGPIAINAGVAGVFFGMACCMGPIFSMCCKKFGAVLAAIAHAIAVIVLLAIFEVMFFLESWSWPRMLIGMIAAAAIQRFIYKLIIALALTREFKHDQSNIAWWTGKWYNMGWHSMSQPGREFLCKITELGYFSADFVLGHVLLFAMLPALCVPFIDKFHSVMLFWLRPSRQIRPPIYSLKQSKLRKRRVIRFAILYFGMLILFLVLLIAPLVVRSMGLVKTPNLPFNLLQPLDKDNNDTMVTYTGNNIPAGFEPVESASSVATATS

1,3-beta-glucan synthase [2] = biological target: 1,3-beta-glucan synthase (Candida, UniProt O13428); test: as §1
1,3-beta-glucan synthase (Candida, UniProt O13428), sequence (O13428 whole entry): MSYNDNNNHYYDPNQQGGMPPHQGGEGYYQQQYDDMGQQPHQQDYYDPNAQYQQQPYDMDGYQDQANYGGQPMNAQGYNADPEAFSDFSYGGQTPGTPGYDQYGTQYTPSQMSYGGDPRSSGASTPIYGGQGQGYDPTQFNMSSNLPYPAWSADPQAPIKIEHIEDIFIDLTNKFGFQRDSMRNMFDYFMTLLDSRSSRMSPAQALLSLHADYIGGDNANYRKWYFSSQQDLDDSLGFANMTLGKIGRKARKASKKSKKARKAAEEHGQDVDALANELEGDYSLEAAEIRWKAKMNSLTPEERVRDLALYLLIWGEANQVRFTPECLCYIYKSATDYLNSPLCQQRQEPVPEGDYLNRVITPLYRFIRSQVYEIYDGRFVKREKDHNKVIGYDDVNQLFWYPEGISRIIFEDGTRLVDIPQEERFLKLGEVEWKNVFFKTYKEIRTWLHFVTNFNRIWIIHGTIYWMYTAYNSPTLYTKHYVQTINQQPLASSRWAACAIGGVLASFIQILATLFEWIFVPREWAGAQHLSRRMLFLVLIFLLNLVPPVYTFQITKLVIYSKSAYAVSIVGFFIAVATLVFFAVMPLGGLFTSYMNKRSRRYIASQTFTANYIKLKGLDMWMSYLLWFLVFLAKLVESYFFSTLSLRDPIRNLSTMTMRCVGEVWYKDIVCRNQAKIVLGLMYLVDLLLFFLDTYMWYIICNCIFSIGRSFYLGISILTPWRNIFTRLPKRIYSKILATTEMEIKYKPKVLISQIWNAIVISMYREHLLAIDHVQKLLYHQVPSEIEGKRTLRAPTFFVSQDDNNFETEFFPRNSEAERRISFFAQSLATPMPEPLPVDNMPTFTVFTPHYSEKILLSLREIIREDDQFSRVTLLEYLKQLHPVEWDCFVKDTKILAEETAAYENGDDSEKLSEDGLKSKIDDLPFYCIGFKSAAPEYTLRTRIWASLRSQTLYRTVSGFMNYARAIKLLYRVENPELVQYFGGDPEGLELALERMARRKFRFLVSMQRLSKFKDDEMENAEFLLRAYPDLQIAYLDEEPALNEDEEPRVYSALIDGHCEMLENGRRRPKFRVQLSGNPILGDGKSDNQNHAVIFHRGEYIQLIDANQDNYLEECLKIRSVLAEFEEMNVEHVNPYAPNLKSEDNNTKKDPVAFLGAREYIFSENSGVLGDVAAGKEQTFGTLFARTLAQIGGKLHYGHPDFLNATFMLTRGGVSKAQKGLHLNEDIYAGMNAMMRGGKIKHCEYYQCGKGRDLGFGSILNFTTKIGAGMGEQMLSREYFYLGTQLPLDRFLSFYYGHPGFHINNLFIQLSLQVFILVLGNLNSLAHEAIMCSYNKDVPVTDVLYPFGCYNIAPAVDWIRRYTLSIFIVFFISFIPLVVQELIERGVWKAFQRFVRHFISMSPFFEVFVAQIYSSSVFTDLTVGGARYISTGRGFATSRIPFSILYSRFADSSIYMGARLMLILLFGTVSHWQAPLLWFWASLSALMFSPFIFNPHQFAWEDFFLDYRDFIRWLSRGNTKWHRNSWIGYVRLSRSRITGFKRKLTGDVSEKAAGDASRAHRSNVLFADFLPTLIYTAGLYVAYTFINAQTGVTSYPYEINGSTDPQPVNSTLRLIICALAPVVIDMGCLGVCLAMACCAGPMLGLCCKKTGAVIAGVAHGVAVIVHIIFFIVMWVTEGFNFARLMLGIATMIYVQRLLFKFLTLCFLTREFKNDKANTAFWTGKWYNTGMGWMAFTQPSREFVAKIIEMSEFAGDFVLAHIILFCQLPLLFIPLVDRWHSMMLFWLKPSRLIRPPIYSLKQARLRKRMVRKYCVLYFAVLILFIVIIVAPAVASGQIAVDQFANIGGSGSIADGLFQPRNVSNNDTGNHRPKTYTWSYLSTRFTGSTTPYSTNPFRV

N[C@H]1CCN(C(=O)CN(CC(=O)NCc2cccc(Cl)c2)c2ccc(Oc3ccccc3)cc2)C1
IC50 (1,3-beta-glucan synthase [1]): 5.6 µM
IC50 (1,3-beta-glucan synthase [2]): 8 µM
